# How the values were obtained:
# purified human BChE = purified human BChE (Homo sapiens, UniProt P06276); experiment: Reversible inhibition of BChE, Ellman method, enzyme-inhibitor dissociation constants; type: biochemical; settings: for SI, selective index Ki(AChE)/Ki(BChE): times higher preference for BChE over AChE
# Procedure: (§1) As a source of BChE, a purified human BChE, and as AChE, a recombinant human AChE was used, both enzymes kindly provided by Dr. F. Nachon (Département de Toxicologie, Armed Forces Biomedical Research Institute, France). The concentrated stocks of enzymes (BChE: 5.6 µM; AChE: 0.20 µM) were diluted in a phosphate sodium buffer 0.1 M (pH 7.4) containing 0.1% BSA before starting the experiments.
# (§2) Enzyme activities were measured spectrophotometrically by the Ellman method at […] using 0.30 mM DTNB as thiol reagent, ATCh as substrate and water in 0.1 M phosphate buffer, pH 7.4. For the inhibition measurements, the reaction mixture contained tested compounds instead of water. […] Measurements were done at 25 °C on a Tecan Infinite M200Pro plate reader (Austria). A detailed description of measurement protocol was described previously.
# (§3) The reversible inhibition of BChE and AChE by tested compounds was measured by determining the decrease of enzyme activity towards ATCh in their presence. The activities of the enzymes were measured at different substrate concentrations ([S]; 0.050–0.50 mM) in the absence (v0) and presence (vi) of the given tested compounds concentration ([I]; 0.050–200 µM, depending on the compound) selected to inhibit the enzymes for 20–80%. At least three concentrations of inhibitors for each substrate concentration were used in at least three experiments. The apparent dissociation inhibition constant (Ki,app) was calculated applying the Hunter-Downs equation and linear regression analysis (1):(1) Ki,app=vi/v0−vi⋅I=KI+KI/KS⋅S where y-intercept determines the enzyme-inhibitor dissociation constants (K(I)), while x-intercept determines the enzyme-substrate dissociation constant, K(S). The determination of kinetic constants was carried out using the GraphPadPrism 6.0 program (GraphPad Software, San Diego, CA, USA).
# recombinant human AChE = recombinant human AChE (Homo sapiens, UniProt P22303); experiment: Reversible inhibition of AChE, Ellman method, enzyme-inhibitor dissociation constants; type: biochemical; settings: ± standard error; ATCh substrate, 25 °C, pH 7.4
# Procedure: as §1, §2, §3
# [1] = ± standard error, ATCh substrate, 25 °C, pH 7.4
# Chain of recombinant human AChE (P22303 32-614): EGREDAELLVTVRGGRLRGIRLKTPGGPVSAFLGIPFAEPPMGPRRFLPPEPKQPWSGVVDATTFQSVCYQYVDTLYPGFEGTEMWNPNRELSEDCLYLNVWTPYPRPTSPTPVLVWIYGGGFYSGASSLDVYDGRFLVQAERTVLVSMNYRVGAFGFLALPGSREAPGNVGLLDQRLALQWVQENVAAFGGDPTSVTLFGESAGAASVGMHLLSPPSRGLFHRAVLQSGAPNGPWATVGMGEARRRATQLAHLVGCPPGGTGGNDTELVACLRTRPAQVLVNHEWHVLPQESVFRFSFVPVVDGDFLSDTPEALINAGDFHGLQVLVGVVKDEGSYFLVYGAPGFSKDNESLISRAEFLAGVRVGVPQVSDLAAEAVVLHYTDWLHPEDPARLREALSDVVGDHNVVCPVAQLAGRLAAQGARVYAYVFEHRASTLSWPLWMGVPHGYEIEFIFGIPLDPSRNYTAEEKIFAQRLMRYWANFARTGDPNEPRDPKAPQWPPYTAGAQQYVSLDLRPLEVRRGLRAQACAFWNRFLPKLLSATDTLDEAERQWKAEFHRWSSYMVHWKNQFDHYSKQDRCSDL
# Chain of purified human BChE (P06276 29-602): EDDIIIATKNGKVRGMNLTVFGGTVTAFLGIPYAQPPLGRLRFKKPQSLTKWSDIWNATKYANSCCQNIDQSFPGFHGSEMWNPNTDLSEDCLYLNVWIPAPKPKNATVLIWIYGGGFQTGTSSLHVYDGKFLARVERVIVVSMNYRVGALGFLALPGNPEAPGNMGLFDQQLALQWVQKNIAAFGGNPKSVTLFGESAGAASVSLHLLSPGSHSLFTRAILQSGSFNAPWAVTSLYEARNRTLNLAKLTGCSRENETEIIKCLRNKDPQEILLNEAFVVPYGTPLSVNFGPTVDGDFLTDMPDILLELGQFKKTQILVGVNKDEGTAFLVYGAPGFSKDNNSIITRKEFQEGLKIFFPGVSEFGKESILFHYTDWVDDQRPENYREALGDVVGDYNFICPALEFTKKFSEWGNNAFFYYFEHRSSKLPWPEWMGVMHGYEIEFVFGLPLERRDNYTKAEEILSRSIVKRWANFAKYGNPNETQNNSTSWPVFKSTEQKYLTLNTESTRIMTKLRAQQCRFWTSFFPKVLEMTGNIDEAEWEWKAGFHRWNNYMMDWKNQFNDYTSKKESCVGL
SMILES,"SI, selective index Ki(AChE)/Ki(BChE) (purified human BChE)",Ki (purified human BChE; [1]),Ki (recombinant human AChE),Stereoselectivity Ki(CN/CD) BChE (purified human BChE; ratio > 1: higher affinity toward CD over CN pseudo-enantiomer),Ki (purified human BChE; stated in text as around)
CCC1C[N+]2(Cc3ccccc3)CCC1C[C@H]2[C@H](O)c1ccnc2ccccc12 (stereo partly drawn) [DHCD Bzl],12,0.4 ± 0.02 µM,4.8 ± 0.4 µM,,
"CCC1C[N+]2(Cc3cccc(C(F)(F)F)c3)CCC1C[C@H]2[C@H](O)c1ccnc2ccccc12 (stereo partly drawn) [DHCD 3CF3, N-(3-trifluoromethylbenzyl)-10,11-dihydrocinchonidinium bromide]",18,1.4 ± 0.1 µM,25 ± 1 µM,,
"C=CC1C[N+]2(Cc3c(F)cccc3Cl)CCC1C[C@@H]2[C@@H](O)c1ccnc2ccccc12 (stereo partly drawn) [CN 2Cl-6F, N-(2-chloro-6-fluorobenzyl)cinchoninium bromide]",14,1.2 µM,17 ± 1 µM,,
"C=CC1C[N+]2(Cc3c(F)cccc3F)CCC1C[C@H]2[C@H](O)c1ccnc2ccccc12 (stereo partly drawn) [CD 2,6F]",0.77,9.9 ± 0.4 µM,7.7 ± 0.5 µM,,
C=CC1C[N+]2(Cc3ccc(F)cc3)CCC1C[C@H]2[C@H](O)c1ccnc2ccccc12 (stereo partly drawn) [CD 4F],46,1.5 ± 0.1 µM,69 ± 3 µM,,
C=CC1C[N+]2(Cc3ccccc3)CCC1C[C@@H]2[C@@H](O)c1ccnc2ccccc12 (stereo partly drawn) [CN Bzl],42,2.9 ± 0.3 µM,121 ± 12 µM,,
"CCC1C[N+]2(Cc3ccc(F)cc3)CCC1C[C@@H]2[C@@H](O)c1ccnc2ccccc12 (stereo partly drawn) [DHCN 4F, N-(4-fluorobenzyl)-10,11-dihydrocinchoninium bromide]",40,1.6 ± 0.1 µM,64 ± 2 µM,,
"C=CC1C[N+]2(Cc3ccc(F)cc3)CCC1C[C@@H]2[C@@H](O)c1ccnc2ccccc12 (stereo partly drawn) [CN 4F, N-(para-fluorobenzyl)cinchoninium bromide]",1.5,2.6 ± 0.1 µM,3.9 ± 0.2 µM,,
"CCC1C[N+]2(Cc3ccc(F)cc3)CCC1C[C@H]2[C@H](O)c1ccnc2ccccc12 (stereo partly drawn) [DHCD 4F, N-(4-fluorobenzyl)-10,11-dihydrocinchonidinium bromide]",8,4.3 ± 0.2 µM,31 ± 1 µM,,
"C=CC1C[N+]2(Cc3cccc(F)c3F)CCC1C[C@@H]2[C@@H](O)c1ccnc2ccccc12 (stereo partly drawn) [CN 2,3F, N-(2,3-difluorobenzyl)cinchoninium bromide]",4.8,9.6 ± 0.4 µM,46 ± 3 µM,,
C=CC1C[N+]2(Cc3ccccc3)CCC1C[C@H]2[C@H](O)c1ccnc2ccccc12 (stereo partly drawn) [CD Bzl],200,0.075 ± 0.007 µM,15 ± 2 µM,,
"C=CC1C[N+]2(Cc3cc(F)cc(F)c3)CCC1C[C@H]2[C@H](O)c1ccnc2ccccc12 (stereo partly drawn) [CD 3,5F]",123,0.081 ± 0.01 µM,10 ± 1 µM,78,~0.076 µM
"C=CC1C[N+]2(Cc3cccc(F)c3)CCC1C[C@H]2[C@H](O)c1ccnc2ccccc12 (stereo partly drawn) [CD 3F, N-(meta-fluorobenzyl)cinchonidinium bromide]",533,0.075 ± 0.005 µM,40 ± 2 µM,,~0.076 µM
CCC1C[N+]2(Cc3ccc(C(F)(F)F)cc3)CCC1C[C@@H]2[C@@H](O)c1ccnc2ccccc12 (stereo partly drawn) [DHCN 4CF3],9,1.6 ± 0.1 µM,18 ± 1 µM,,
C=CC1C[N+]2(Cc3ccccc3F)CCC1C[C@H]2[C@H](O)c1ccnc2ccccc12 (stereo partly drawn) [CD 2F],40,0.82 ± 0.03 µM,33 ± 1 µM,,
"C=CC1C[N+]2(Cc3c(F)cccc3C(F)(F)F)CCC1C[C@@H]2[C@@H](O)c1ccnc2ccccc12 (stereo partly drawn) [CN 2F-6CF3, N-(2-fluoro-6-trifluoromethylbenzyl)cinchoninium bromide]",7.9,7.7 ± 0.4 µM,61 ± 2 µM,,

SMILES,"SI, selective index Ki(AChE)/Ki(BChE) (purified human BChE)",Ki (purified human BChE; [1]),Ki (recombinant human AChE),Stereoselectivity Ki(CN/CD) BChE (purified human BChE; ratio > 1: higher affinity toward CD over CN pseudo-enantiomer),Ki (purified human BChE; stated in text as around)
"C=CC1C[N+]2(Cc3cccc(F)c3F)CCC1C[C@H]2[C@H](O)c1ccnc2ccccc12 (stereo partly drawn) [CD 2,3F]",25,0.75 ± 0.03 µM,19 ± 1 µM,,
CCC1C[N+]2(Cc3ccc(C(F)(F)F)cc3)CCC1C[C@H]2[C@H](O)c1ccnc2ccccc12 (stereo partly drawn) [DHCD 4CF3],5,3.2 ± 0.2 µM,15 ± 1 µM,,
"C=CC1C[N+]2(Cc3ccc(Br)cc3F)CCC1C[C@@H]2[C@@H](O)c1ccnc2ccccc12 (stereo partly drawn) [CN 2F-4Br, N-(2-fluoro-4-bromobenzyl)cinchoninium bromide]",2.9,5.5 ± 0.3 µM,16 ± 1 µM,,
"CCC1C[N+]2(Cc3cccc(OC(F)(F)F)c3)CCC1C[C@@H]2[C@@H](O)c1ccnc2ccccc12 (stereo partly drawn) [DHCN 3OCF3, N-(3-trifluoromethoxybenzyl)-10,11-dihydrocinchoninium bromide]",52,1.3 ± 0.5 µM,68 ± 1 µM,,
"C=CC1C[N+]2(Cc3ccc(Br)cc3F)CCC1C[C@H]2[C@H](O)c1ccnc2ccccc12 (stereo partly drawn) [CD 2F-4Br, N-(2-fluoro-4-bromobenzyl)cinchonidinium bromide]",10,0.68 ± 0.05 µM,7.2 ± 0.4 µM,,
C=CC1C[N+]2(Cc3ccccc3F)CCC1C[C@@H]2[C@@H](O)c1ccnc2ccccc12 (stereo partly drawn) [CN 2F],33,2.4 ± 0.1 µM,80 ± 2 µM,,
"C=CC1C[N+]2(Cc3c(F)cccc3C(F)(F)F)CCC1C[C@H]2[C@H](O)c1ccnc2ccccc12 (stereo partly drawn) [CD 2F-6CF3, N-(2-fluoro-6-trifluoromethylbenzyl)cinchonidinium bromide]",6.1,5.7 ± 0.6 µM,35 ± 4 µM,,
C=CC1C[N+]2(Cc3ccc(OC(F)(F)F)cc3)CCC1C[C@H]2[C@H](O)c1ccnc2ccccc12 (stereo partly drawn) [CD 4OCF3],0.96,7.6 ± 0.5 µM,7.3 ± 0.5 µM,,
"CCC1C[N+]2(Cc3ccc(OC(F)(F)F)cc3)CCC1C[C@@H]2[C@@H](O)c1ccnc2ccccc12 (stereo partly drawn) [DHCN 4OCF3, N-(4-trifluoromethoxybenzyl)-10,11-dihydrocinchoninium bromide]",10,2.2 ± 0.1 µM,22 ± 1 µM,,
"C=CC1C[N+]2(Cc3cccc(OC(F)(F)F)c3)CCC1C[C@@H]2[C@@H](O)c1ccnc2ccccc12 (stereo partly drawn) [CN 3OCF3, N-(3-trifluoromethoxybenzyl)cinchoninium bromide]",8.7,4.7 ± 0.2 µM,41 ± 2 µM,,
"CCC1CN2CCC1CC2C(O)c1ccnc2ccccc12 (stereo not drawn) [DHCD, 10,11-dihydrocinchonidine]",11,19 ± 2 µM,206 ± 6 µM,,
C=CC1C[N+]2(Cc3ccc(OC(F)(F)F)cc3)CCC1C[C@@H]2[C@@H](O)c1ccnc2ccccc12 (stereo partly drawn) [CN 4OCF3],2.4,7.8 ± 0.3 µM,19 ± 2 µM,,
CCC1C[N+]2(Cc3ccccc3)CCC1C[C@@H]2[C@@H](O)c1ccnc2ccccc12 (stereo partly drawn) [DHCN Bzl],23,0.9 ± 0.04 µM,21 ± 1 µM,,
CCC1C[N+]2(Cc3cccc(C(F)(F)F)c3)CCC1C[C@@H]2[C@@H](O)c1ccnc2ccccc12 (stereo partly drawn) [DHCN 3CF3],34,1.2 ± 0.05 µM,41 ± 2 µM,,
"C=CC1C[N+]2(Cc3ccc(F)cc3F)CCC1C[C@H]2[C@H](O)c1ccnc2ccccc12 (stereo partly drawn) [CD 2,4F]",1.1,6.1 ± 0.5 µM,6.4 ± 0.3 µM,,
"C=CC1C[N+]2(Cc3ccc(F)cc3F)CCC1C[C@@H]2[C@@H](O)c1ccnc2ccccc12 (stereo partly drawn) [CN 2,4F, N-(2,4-difluorobenzyl)cinchoninium bromide]",4.5,6 ± 0.2 µM,27 ± 1 µM,,

# From paper PMC9610298, “Synthesis, Biological Evaluation and Machine Learning Prediction Model for Fluorinated Cinchona Alkaloid-Based Derivatives as Cholinesterase Inhibitors” (Pharmaceuticals, 2022)
